# From article PMC5218480 (PLoS ONE, 2017)
# Test system: MV-4-11 cells
# Assay: Gene expression microarray analysis (Affymetrix PrimeView) and GSEA
# Type: cell-based, human
# Set-up: RFU PODN (11730768_x_at) / Fold change /veh PODN (11730768_x_at) / RFU LINC00158 (11744669_a_at) / Fold change /veh LINC00158 (11744669_a_at) / RFU DUSP10 (11751237_a_at) / Fold change /veh DUSP10 (11751237_a_at) / RFU ID3 (11757404_x_at) / Fold change /veh ID3 (11757404_x_at) / RFU PLEKHG5 (11737974_s_at) / Fold change /veh PLEKHG5 (11737974_s_at) / RFU LRRC4B (11730491_at) / Fold change /veh LRRC4B (11730491_at) / RFU GIMAP4 (11747438_a_at) / Fold change /veh GIMAP4 (11747438_a_at) / RFU KRT8 (11758183_x_at) / Fold change /veh KRT8 (11758183_x_at) / RFU CNN1 (11734310_a_at) / Fold change /veh CNN1 (11734310_a_at) / RFU VPS37D (11726825_at) / Fold change /veh VPS37D (11726825_at) / RFU C10orf10 (11716522_x_at) / Fold change /veh C10orf10 (11716522_x_at) / RFU KIR2DL2 /// KIR2DL4 /// KIR2DL5A /// KIR2DL5B /// KIR2DS1 /// KIR2DS2 /// KIR2DS3 /// KIR2DS4 /// KIR3DL3 /// KIR3DL3 /// KIR3DS1 (11738374_at) / Fold change /veh KIR2DL2 /// KIR2DL4 /// KIR2DL5A /// KIR2DL5B /// KIR2DS1 /// KIR2DS2 /// KIR2DS3 /// KIR2DS4 /// KIR3DL3 /// KIR3DL3 /// KIR3DS1 (11738374_at) / RFU C1QL1 (11718748_at) / Fold change /veh C1QL1 (11718748_at) / RFU TMPRSS4 (11747572_a_at) / Fold change /veh TMPRSS4 (11747572_a_at) / RFU HAMP (11756126_x_at) / Fold change /veh HAMP (11756126_x_at) / RFU RNFT2 (11725882_a_at) / Fold change /veh RNFT2 (11725882_a_at) / RFU NR4A2 (11747474_a_at) / Fold change /veh NR4A2 (11747474_a_at) / RFU ABCC12 (11746883_a_at) / Fold change /veh ABCC12 (11746883_a_at) / RFU TMEM136 (11760407_x_at) / Fold change /veh TMEM136 (11760407_x_at) / RFU CLDN22 /// WWC2 (11732394_at) / Fold change /veh CLDN22 /// WWC2 (11732394_at) / RFU HLA-DPB1 (11760878_x_at) / Fold change /veh HLA-DPB1 (11760878_x_at) / RFU SPINT1 (11716480_a_at) / Fold change /veh SPINT1 (11716480_a_at) / RFU GAP43 (11754022_s_at) / Fold change /veh GAP43 (11754022_s_at) / RFU A4GNT (11735810_at) / Fold change /veh A4GNT (11735810_at) / RFU PRB3 (11715151_x_at) / Fold change /veh PRB3 (11715151_x_at) / RFU TUBB4B (11761932_at) / Fold change /veh TUBB4B (11761932_at) / RFU CAPN14 (11732068_a_at) / Fold change /veh CAPN14 (11732068_a_at) / RFU TMCC2 (11721928_a_at) / Fold change /veh TMCC2 (11721928_a_at) / RFU IRGQ (11745062_a_at) / Fold change /veh IRGQ (11745062_a_at) / RFU FAM174B (11720279_a_at) / Fold change /veh FAM174B (11720279_a_at) / RFU TMPRSS4 (11748680_a_at) / Fold change /veh TMPRSS4 (11748680_a_at) / RFU FAM212B (11763350_a_at) / Fold change /veh FAM212B (11763350_a_at) / RFU PLEKHG5 (11743358_a_at) / Fold change /veh PLEKHG5 (11743358_a_at) / RFU ZSCAN30 (11745921_a_at) / Fold change /veh ZSCAN30 (11745921_a_at) / RFU CMKLR1 (11741424_a_at) / Fold change /veh CMKLR1 (11741424_a_at) / RFU LOC101060620 /// MAPK8IP1 (11723275_at) / Fold change /veh LOC101060620 /// MAPK8IP1 (11723275_at) / RFU SPTSSB (11747773_x_at) / Fold change /veh SPTSSB (11747773_x_at) / RFU PRSS12 (11739890_at) / Fold change /veh PRSS12 (11739890_at) / RFU BIN1 (11741810_x_at) / Fold change /veh BIN1 (11741810_x_at) / RFU WNT11 (11732464_a_at) / Fold change /veh WNT11 (11732464_a_at) / RFU C10orf10 (11716521_a_at) / Fold change /veh C10orf10 (11716521_a_at) / RFU C5orf56 (11738089_at) / Fold change /veh C5orf56 (11738089_at) / RFU CYB561 (11721691_x_at) / Fold change /veh CYB561 (11721691_x_at) / RFU ANKRD19P (11752326_a_at) / Fold change /veh ANKRD19P (11752326_a_at) / RFU OR2T12 /// OR2T33 /// OR2T8 (11738714_s_at) / Fold change /veh OR2T12 /// OR2T33 /// OR2T8 (11738714_s_at) / RFU VCAN (11748164_a_at) / Fold change /veh VCAN (11748164_a_at) / RFU JSRP1 (11732532_at) / Fold change /veh JSRP1 (11732532_at) / RFU KRTAP10-11 (11738290_x_at) / Fold change /veh KRTAP10-11 (11738290_x_at) / RFU MYO3A (11730013_a_at) / Fold change /veh MYO3A (11730013_a_at) / RFU EBF3 (11725865_a_at) / Fold change /veh EBF3 (11725865_a_at) / RFU CAMK2N1 (11719241_x_at) / Fold change /veh CAMK2N1 (11719241_x_at) / RFU C5orf56 (11738088_a_at) / Fold change /veh C5orf56 (11738088_a_at) / RFU OLFML3 (11715873_a_at) / Fold change /veh OLFML3 (11715873_a_at) / RFU LOC100653217 /// NTM (11731650_a_at) / Fold change /veh LOC100653217 /// NTM (11731650_a_at) / RFU MAPK11 (11762145_a_at) / Fold change /veh MAPK11 (11762145_a_at) / RFU FIZ1 (11724087_x_at) / Fold change /veh FIZ1 (11724087_x_at) / RFU OASL (11726364_x_at) / Fold change /veh OASL (11726364_x_at) / RFU SOX15 (11748057_x_at) / Fold change /veh SOX15 (11748057_x_at) / RFU CD79A (11719716_a_at) / Fold change /veh CD79A (11719716_a_at) / RFU HIST1H1D (11736915_at) / Fold change /veh HIST1H1D (11736915_at) / RFU CASKIN2 (11723855_a_at) / Fold change /veh CASKIN2 (11723855_a_at) / RFU LOC730098 (11760151_x_at) / Fold change /veh LOC730098 (11760151_x_at) / RFU OR4N2 (11742367_at) / Fold change /veh OR4N2 (11742367_at) / RFU PRRT2 (11749266_a_at) / Fold change /veh PRRT2 (11749266_a_at) / RFU SNX32 (11753110_a_at) / Fold change /veh SNX32 (11753110_a_at) / RFU CDHR5 (11726645_a_at) / Fold change /veh CDHR5 (11726645_a_at) / RFU RCAN1 (11760418_a_at) / Fold change /veh RCAN1 (11760418_a_at) / RFU FAM167A (11723789_a_at) / Fold change /veh FAM167A (11723789_a_at) / RFU FAM26E (11764081_at) / Fold change /veh FAM26E (11764081_at) / RFU ISYNA1 (11749810_s_at) / Fold change /veh ISYNA1 (11749810_s_at) / RFU ACY1 (11761880_at) / Fold change /veh ACY1 (11761880_at) / RFU 11764098_at / Fold change /veh 11764098_at / RFU SAMD14 (11745864_x_at) / Fold change /veh SAMD14 (11745864_x_at) / RFU NPB (11741838_a_at) / Fold change /veh NPB (11741838_a_at) / RFU TMPRSS6 (11731388_a_at) / Fold change /veh TMPRSS6 (11731388_a_at) / RFU KRTAP10-2 (11738614_at) / Fold change /veh KRTAP10-2 (11738614_at) / RFU ARHGAP8 /// PRR5-ARHGAP8 (11727945_x_at) / Fold change /veh ARHGAP8 /// PRR5-ARHGAP8 (11727945_x_at) / RFU KRTAP5-7 /// NADSYN1 (11734609_at) / Fold change /veh KRTAP5-7 /// NADSYN1 (11734609_at) / RFU RASL12 (11751679_a_at) / Fold change /veh RASL12 (11751679_a_at) / RFU CDKN2B (11736163_a_at) / Fold change /veh CDKN2B (11736163_a_at) / RFU PRF1 (11729649_at) / Fold change /veh PRF1 (11729649_at) / RFU, ZNF638 /// ZNF638-IT1 / Fold change vs veh, ZNF638 /// ZNF638-IT1 / RFU, PANK3 / Fold change vs veh, PANK3 / RFU, SH3YL1 / Fold change vs veh, SH3YL1 / RFU, ZEB2 / Fold change vs veh, ZEB2 / RFU, NRIP1 / Fold change vs veh, NRIP1 / RFU, PTTG1IP / Fold change vs veh, PTTG1IP / RFU, CAPN2 / Fold change vs veh, CAPN2 / RFU, MED14 / Fold change vs veh, MED14 / RFU, SNORA58 / Fold change vs veh, SNORA58 / RFU, C1orf63 / Fold change vs veh, C1orf63 / RFU, LRRFIP1 / Fold change vs veh, LRRFIP1 / RFU, NDUFAF7 / Fold change vs veh, NDUFAF7 / RFU, SLC12A2 / Fold change vs veh, SLC12A2 / RFU, IBTK / Fold change vs veh, IBTK / RFU, ESF1 / Fold change vs veh, ESF1 / Fold change vs veh, TMEM50B / RFU, TAOK1 / Fold change vs veh, TAOK1 / RFU, ACBD3 / Fold change vs veh, ACBD3 / RFU, TMA16 / Fold change vs veh, TMA16 / RFU, RWDD3 / Fold change vs veh, RWDD3 / RFU, BCAT1 / Fold change vs veh, BCAT1 / RFU, EDEM3 / Fold change vs veh, EDEM3 / RFU, TMEM33 / Fold change vs veh, TMEM33 / RFU, WDR75 / Fold change vs veh, WDR75 / RFU, AHCTF1 / Fold change vs veh, AHCTF1 / RFU, TFRC / Fold change vs veh, TFRC / RFU, ZDHHC17 / Fold change vs veh, ZDHHC17 / RFU, NOM1 / Fold change vs veh, NOM1 / RFU, ARL8B / Fold change vs veh, ARL8B / RFU, ZBTB11 / Fold change vs veh, ZBTB11 / RFU, TAMM41 / Fold change vs veh, TAMM41 / RFU, KIAA1704 /// LOC100996395 / Fold change vs veh, KIAA1704 /// LOC100996395 / RFU, ING1 / Fold change vs veh, ING1 / RFU, TRMT61B / Fold change vs veh, TRMT61B / RFU, FUBP3 / Fold change vs veh, FUBP3 / RFU, TP53 / Fold change vs veh, TP53 / RFU, TNKS2 / Fold change vs veh, TNKS2 / RFU, ZFP14 / Fold change vs veh, ZFP14 / RFU, ACTR2 / Fold change vs veh, ACTR2 / RFU, PPP3R1 / Fold change vs veh, PPP3R1 / RFU, PIK3R1 / Fold change vs veh, PIK3R1 / RFU, HNRNPA1 / Fold change vs veh, HNRNPA1 / RFU, RNF170 / Fold change vs veh, RNF170 / RFU, ZNF28 / Fold change vs veh, ZNF28 / RFU, RNGTT / Fold change vs veh, RNGTT / RFU, OGT / Fold change vs veh, OGT / RFU, BRD1 / Fold change vs veh, BRD1 / RFU, MARS / Fold change vs veh, MARS / RFU, ZNF655 / Fold change vs veh, ZNF655 / RFU, FAHD1 / Fold change vs veh, FAHD1 / RFU, BDP1 / Fold change vs veh, BDP1 / RFU, LRRCC1 / Fold change vs veh, LRRCC1 / RFU, ARID1A / Fold change vs veh, ARID1A / RFU, ZNF146 / Fold change vs veh, ZNF146 / RFU, ZNF330 / Fold change vs veh, ZNF330 / RFU, GPN3 / Fold change vs veh, GPN3 / RFU, C9orf123 / Fold change vs veh, C9orf123 / RFU, N4BP2L2 / Fold change vs veh, N4BP2L2 / RFU, ARFIP1 / Fold change vs veh, ARFIP1 / RFU, FAM179B / Fold change vs veh, FAM179B / RFU, BCL10 / Fold change vs veh, BCL10 / RFU, UHRF1BP1L / Fold change vs veh, UHRF1BP1L / RFU, BET1 / Fold change vs veh, BET1 / RFU, CNOT2 / Fold change vs veh, CNOT2 / RFU, ZNF268 / Fold change vs veh, ZNF268 / Fold change vs veh, ZNF507 / RFU, DGCR2 / Fold change vs veh, DGCR2 / RFU, WDSUB1 / Fold change vs veh, WDSUB1 / Fold change vs veh, HSP90B1 /// MIR3652 / RFU, ADSS / Fold change vs veh, ADSS / RFU, GK / Fold change vs veh, GK / RFU, ZNF148 / Fold change vs veh, ZNF148 / RFU, TAF9 / Fold change vs veh, TAF9 / RFU, SLC1A5 / Fold change vs veh, SLC1A5 / RFU, SLMO2 / Fold change vs veh, SLMO2 / RFU, ABCC4 / Fold change vs veh, ABCC4 / RFU, LOC101060439 /// RAP1B / Fold change vs veh, LOC101060439 /// RAP1B / RFU, RFX7 / Fold change vs veh, RFX7 / RFU, GTPBP10 / Fold change vs veh, GTPBP10 / RFU, CNEP1R1 / Fold change vs veh, CNEP1R1 / RFU, BIVM-ERCC5 /// ERCC5 / Fold change vs veh, BIVM-ERCC5 /// ERCC5 / RFU, ILF3 / Fold change vs veh, ILF3 / RFU 11762660_at / Fold change /veh 11762660_at / RFU VCAN (11757783_s_at) / Fold change /veh VCAN (11757783_s_at) / RFU DDX43 (11728927_at) / Fold change /veh DDX43 (11728927_at) / RFU KRT8 (11758188_x_at) / Fold change /veh KRT8 (11758188_x_at) / RFU NKD1 (11759106_at) / Fold change /veh NKD1 (11759106_at) / RFU SRD5A1 (11742802_a_at) / Fold change /veh SRD5A1 (11742802_a_at) / RFU TPSAB1 /// TPSB2 (11721975_s_at) / Fold change /veh TPSAB1 /// TPSB2 (11721975_s_at) / RFU GSTM3 (11746129_a_at) / Fold change /veh GSTM3 (11746129_a_at) / RFU IL23R (11737362_x_at) / Fold change /veh IL23R (11737362_x_at) / RFU TMEM51 (11727254_a_at) / Fold change /veh TMEM51 (11727254_a_at) / RFU PIWIL2 (11732686_x_at) / Fold change /veh PIWIL2 (11732686_x_at) / RFU ORM1 (11744905_x_at) / Fold change /veh ORM1 (11744905_x_at) / RFU CCDC152 (11743942_at) / Fold change /veh CCDC152 (11743942_at) / RFU ECM1 (11717891_a_at) / Fold change /veh ECM1 (11717891_a_at) / RFU IL23R (11748794_a_at) / Fold change /veh IL23R (11748794_a_at) / RFU TNFAIP8L3 (11732012_x_at) / Fold change /veh TNFAIP8L3 (11732012_x_at) / RFU MBOAT4 (11741988_at) / Fold change /veh MBOAT4 (11741988_at) / RFU 11764193_at / Fold change /veh 11764193_at / RFU TMEM53 (11763286_at) / Fold change /veh TMEM53 (11763286_at) / RFU MAGEB2 (11727129_at) / Fold change /veh MAGEB2 (11727129_at) / RFU TMEM200A (11744735_a_at) / Fold change /veh TMEM200A (11744735_a_at) / RFU CCDC152 (11751479_a_at) / Fold change /veh CCDC152 (11751479_a_at) / RFU FAM211A (11726209_a_at) / Fold change /veh FAM211A (11726209_a_at) / RFU RGS16 (11746705_a_at) / Fold change /veh RGS16 (11746705_a_at) / RFU VCAN (11755009_s_at) / Fold change /veh VCAN (11755009_s_at) / RFU RHOB (11743442_s_at) / Fold change /veh RHOB (11743442_s_at) / RFU RGS16 (11720943_a_at) / Fold change /veh RGS16 (11720943_a_at) / RFU RGS16 (11720944_at) / Fold change /veh RGS16 (11720944_at) / RFU, VPS4B / Fold change vs veh, VPS4B / RFU, CREB1 / Fold change vs veh, CREB1 / RFU, DNAJC13 / Fold change vs veh, DNAJC13 / RFU, GNAQ / Fold change vs veh, GNAQ / RFU, CDK5R1 / Fold change vs veh, CDK5R1 / RFU, ZRANB3 / Fold change vs veh, ZRANB3 / RFU, CUL4A / Fold change vs veh, CUL4A / RFU, CCNY / Fold change vs veh, CCNY / RFU, UFL1 / Fold change vs veh, UFL1 / RFU, COG3 / Fold change vs veh, COG3 / RFU, DIAPH2 / Fold change vs veh, DIAPH2 / RFU, SKA2 / Fold change vs veh, SKA2 / RFU, AFF3 / Fold change vs veh, AFF3 / RFU, LMF1 / Fold change vs veh, LMF1 / RFU, IPO11 / Fold change vs veh, IPO11 / RFU, DFFB / Fold change vs veh, DFFB / RFU, FOXP1 / Fold change vs veh, FOXP1 / RFU, CARD8 / Fold change vs veh, CARD8 / RFU, STRN3 / Fold change vs veh, STRN3 / RFU, ADK / Fold change vs veh, ADK / RFU, RASSF2 / Fold change vs veh, RASSF2 / RFU, WIPF1 / Fold change vs veh, WIPF1 / RFU, LARP1B / Fold change vs veh, LARP1B / RFU, RASA1 / Fold change vs veh, RASA1 / RFU, RB1 / Fold change vs veh, RB1 / RFU, PPFIA1 / Fold change vs veh, PPFIA1 / RFU, MAT2A / Fold change vs veh, MAT2A / RFU, CCT5 / Fold change vs veh, CCT5 / RFU, WDR92 / Fold change vs veh, WDR92 / RFU, CUX1 / Fold change vs veh, CUX1 / RFU, TTC7A / Fold change vs veh, TTC7A / RFU, TMEM135 / Fold change vs veh, TMEM135 / RFU, DEPTOR / Fold change vs veh, DEPTOR / RFU, CPM / Fold change vs veh, CPM / RFU, DNAJB6 / Fold change vs veh, DNAJB6 / RFU, CACNA2D3 / Fold change vs veh, CACNA2D3 / RFU, DTX4 / Fold change vs veh, DTX4 / RFU, TFCP2 / Fold change vs veh, TFCP2 / RFU, GMCL1 /// GMCL1P1 / Fold change vs veh, GMCL1 /// GMCL1P1 / RFU, AEBP2 / Fold change vs veh, AEBP2 / RFU, SNHG1 /// SNORD22 /// SNORD25 /// SNORD26 /// SNORD27 /// SNORD28 /// SNORD29 /// SNORD31 / Fold change vs veh, SNHG1 /// SNORD22 /// SNORD25 /// SNORD26 /// SNORD27 /// SNORD28 /// SNORD29 /// SNORD31 / Fold change (Aza/veh), C12orf56 (ProbeSet 11735607_a_at) / Fold change (ACY-1035/veh), C12orf56 (ProbeSet 11735607_a_at) / Fold change (Aza/veh), FGFR1OP (ProbeSet 11751329_s_at) / Fold change (ACY-1035/veh), FGFR1OP (ProbeSet 11751329_s_at) / Fold change (Aza/veh), VPS36 (ProbeSet 11739960_a_at) / Fold change (ACY-1035/veh), VPS36 (ProbeSet 11739960_a_at) / RFU SYPL1 (11715823_x_at) / Fold change /veh SYPL1 (11715823_x_at) / RFU IGFBP7 (11715501_s_at) / Fold change /veh IGFBP7 (11715501_s_at) / RFU REEP3 (11722064_at) / Fold change /veh REEP3 (11722064_at) / RFU IGLL1 (11728026_x_at) / Fold change /veh IGLL1 (11728026_x_at): dose or concentration left out as unconfirmed
# Conditions: MV-4-11 cells, 48 hours
structure (smiles),measurement,value
Nc1ccc(-c2cccs2)cc1NC(=O)c1ccc2c(c1)cc(C1CC1)n2CCN1CCOCC1 [ACY-1035],RFU JSRP1 (11732532_at),43.67 RFU
